# Reference: ChEMBL document CHEMBL1201862, “PubChem BioAssay data set” (2004)
# Counter-ions that a name gives are not always drawn. The source made the active and inactive calls.
# Tests used:
# [1] = molecular target: T1, Adenosylmethionine-8-amino-7-oxononanoate aminotransferase (Mycobacterium tuberculosis, UniProt P9WQ81); assay: Mycobacterium tuberculosis BioA enzyme inhibitor Measured in Biochemical System Using Plate Reader - 2163-02_Inhibitor_Dose_CherryPick_Activity.; type: functional, Mycobacterium tuberculosis UT205
# T1 sequence (P9WQ81 whole entry): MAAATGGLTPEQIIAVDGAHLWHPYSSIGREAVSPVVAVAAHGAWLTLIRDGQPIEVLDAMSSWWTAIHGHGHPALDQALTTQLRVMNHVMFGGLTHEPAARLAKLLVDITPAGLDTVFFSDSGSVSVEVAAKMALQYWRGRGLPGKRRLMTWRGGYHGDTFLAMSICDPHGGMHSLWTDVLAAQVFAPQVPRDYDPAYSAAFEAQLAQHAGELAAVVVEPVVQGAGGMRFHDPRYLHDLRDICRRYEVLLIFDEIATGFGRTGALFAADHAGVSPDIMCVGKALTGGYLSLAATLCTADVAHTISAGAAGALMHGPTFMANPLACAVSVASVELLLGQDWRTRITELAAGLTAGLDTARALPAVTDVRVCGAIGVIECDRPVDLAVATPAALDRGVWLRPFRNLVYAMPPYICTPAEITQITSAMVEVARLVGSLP
# [2] = molecular target: 72 kDa type IV collagenase (Homo sapiens, UniProt P08253); assay: Dose Response validation of uHTS RPN11 inhibitor hits using a MMP-2 Fluorescence assay.; type: functional
# [3] = molecular target: T2, Small ubiquitin-related modifier 1 (Homo sapiens, UniProt P63165); assay: inhibitors of SUMO1 peptide binding, dose response, biochemical, fluorescence polarization, uHTS hits (AID 624382); type: functional; conditions: read-out: IC50_Mean
# [4] = molecular target: Prothrombin (Bos taurus, UniProt P00735); assay: thrombin inhibition, dose response, biochemical, fluorescence polarization, uHTS hits (AID 602369); type: functional
# [5] = molecular target: 26S proteasome non-ATPase regulatory subunit 14 (Homo sapiens, UniProt O00487); assay: inhibition of proteasome subunit RPN11 – biochemical, fluorescence polarization, uHTS hits, confirmation (AID 602368); type: functional
# [6] = molecular target: T2, Small ubiquitin-related modifier 1; assay: inhibitors of SUMO1 partner interactions, dose response, biochemical, FRET (AID 624383); type: functional; conditions: read-out: IC50_Mean
# [7] = molecular target: T3, DNA repair protein RAD52 homolog (Homo sapiens, UniProt P43351); type: functional, biochemical
# T3 sequence (P43351 whole entry): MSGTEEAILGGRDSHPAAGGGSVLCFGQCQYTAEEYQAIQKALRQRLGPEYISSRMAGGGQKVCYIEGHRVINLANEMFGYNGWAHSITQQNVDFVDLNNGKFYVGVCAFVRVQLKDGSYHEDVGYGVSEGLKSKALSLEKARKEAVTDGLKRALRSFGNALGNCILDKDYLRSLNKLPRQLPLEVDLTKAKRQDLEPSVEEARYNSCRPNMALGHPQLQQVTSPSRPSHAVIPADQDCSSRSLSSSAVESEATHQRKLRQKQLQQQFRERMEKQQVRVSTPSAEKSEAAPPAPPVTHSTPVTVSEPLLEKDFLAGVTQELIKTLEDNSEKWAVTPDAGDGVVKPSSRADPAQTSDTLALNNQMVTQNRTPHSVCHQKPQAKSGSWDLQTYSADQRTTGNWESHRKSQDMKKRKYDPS
# [8] = molecular target: DNA dC->dU-editing enzyme APOBEC-3G (Homo sapiens, UniProt Q9HC16); assay: Dose Response confirmation of small molecule APOBEC3G DNA Deaminase Inhibitors via a fluorescence-based single-stranded DNA deaminase assay. [Related pubchem assays (depositor defined):AID493012, AID493028]; type: functional
# [9] = THP-1 cell cytotoxicity, dose response, cytotoxicity control for non-replicating M. tuberculosis project (AID 489025); type: functional
# [10] = molecular target: DNA dC->dU-editing enzyme APOBEC-3A (Homo sapiens, UniProt P31941); assay: APOBEC3A DNA deaminase inhibitors, dose response, biochemical (AID 504722); type: functional
# [11] = molecular target: Heat shock protein HSP 90-alpha (Homo sapiens, UniProt P07900); type: functional, organism-based
# [12] = Luminescence Cell-Based Dose Retest to Confirm Inhibitors of Cancer Stem Cells. [Related pubchem assays (depositor defined):AID2717, AID2721]; type: functional; conditions: Homo sapiens
# [13] = molecular target: T4, Trace amine-associated receptor 1 (Homo sapiens, UniProt Q96RJ0); assay: Counterscreen for agonists of the human trace amine associated receptor 1 (hTAAR1): Fluorescence-based cell-based high throughput dose response assay to identify hTAAR1 agonist that also desensitize TAAR1 receptor response.; type: functional
# T4 sequence (Q96RJ0 whole entry): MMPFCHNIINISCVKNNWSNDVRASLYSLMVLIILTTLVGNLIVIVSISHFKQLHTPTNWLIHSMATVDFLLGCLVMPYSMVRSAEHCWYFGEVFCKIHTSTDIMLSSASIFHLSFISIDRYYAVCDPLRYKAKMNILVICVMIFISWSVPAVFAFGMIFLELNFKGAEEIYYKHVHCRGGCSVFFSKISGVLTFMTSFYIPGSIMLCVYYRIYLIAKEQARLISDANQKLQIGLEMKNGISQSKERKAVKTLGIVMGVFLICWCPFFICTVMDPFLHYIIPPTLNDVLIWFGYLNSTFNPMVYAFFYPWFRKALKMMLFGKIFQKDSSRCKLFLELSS
# [14] = molecular target: T4, Trace amine-associated receptor 1; assay: Fluorescence-based cell-based high throughput dose response assay to identify agonists of the human trace amine associated receptor 1 (TAAR1).; type: functional
# [15] = cells; type: functional, cell-based
# [16] = cells; type: functional, cell-based; remark: listed apart in the source
# [17] = CRF-BP/CRF-R2 complex antagonists, dose response, cell-based, uHTS hits, 384-well (AID 651639); type: functional, Homo sapiens; conditions: read-out: IC50_Mean
# [18] = molecular target: T5, Streptokinase A (Streptococcus pyogenes serotype M1, UniProt P10520); assay: S. pyogenes streptokinase expression inhibitors, potency, dose response, plasminogen activation absorbance, OD405 (AID 1914); type: functional, Streptococcus pyogenes M1 GAS;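 note: secreted streptokinase activity via plasminogen activation per viability signal from cell pellet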
# T5 sequence (P10520 whole entry): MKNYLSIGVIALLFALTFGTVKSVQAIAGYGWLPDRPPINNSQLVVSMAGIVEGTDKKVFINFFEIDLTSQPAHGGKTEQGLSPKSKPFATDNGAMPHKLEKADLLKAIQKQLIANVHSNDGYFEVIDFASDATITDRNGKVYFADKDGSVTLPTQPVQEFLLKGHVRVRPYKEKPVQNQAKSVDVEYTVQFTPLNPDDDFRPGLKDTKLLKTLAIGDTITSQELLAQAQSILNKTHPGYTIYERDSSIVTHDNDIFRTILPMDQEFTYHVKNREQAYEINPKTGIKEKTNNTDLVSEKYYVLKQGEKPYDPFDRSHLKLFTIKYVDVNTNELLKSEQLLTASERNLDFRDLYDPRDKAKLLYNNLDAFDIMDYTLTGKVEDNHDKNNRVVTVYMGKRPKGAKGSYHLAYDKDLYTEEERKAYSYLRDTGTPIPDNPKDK
# [19] = tested on: Streptococcus; assay: Group A Streptococcus viability loss, dose response, counter-screen for streptokinase expression inhibitor project, luminescence, BacTiterGlo (AID 1915); type: functional, organism-based;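 note: potency for reduction of bacterial viability or growth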
# [20] = molecular target: T6, Corticotropin-releasing factor receptor 2/Corticotropin-releasing factor-binding protein (Homo sapiens, UniProt P24387+Q13324); assay: Dose Response confirmation of uHTS hits for small molecule antagonists of the CRF-binding protein and CRF-R2 receptor complex.; type: functional; conditions: read-out: IC50_Mean
# T6 sequence (Q13324 whole entry): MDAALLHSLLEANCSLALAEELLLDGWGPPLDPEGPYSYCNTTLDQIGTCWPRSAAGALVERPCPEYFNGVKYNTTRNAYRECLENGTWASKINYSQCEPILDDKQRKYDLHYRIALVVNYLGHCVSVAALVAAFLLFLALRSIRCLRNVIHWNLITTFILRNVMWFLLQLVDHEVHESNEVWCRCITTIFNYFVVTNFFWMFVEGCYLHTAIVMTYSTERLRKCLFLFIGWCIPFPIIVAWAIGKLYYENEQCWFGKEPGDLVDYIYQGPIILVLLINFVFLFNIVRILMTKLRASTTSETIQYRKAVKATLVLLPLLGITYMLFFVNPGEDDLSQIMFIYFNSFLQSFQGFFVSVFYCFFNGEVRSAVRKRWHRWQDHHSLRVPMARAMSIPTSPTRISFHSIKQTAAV
# T6 sequence (P24387 whole entry): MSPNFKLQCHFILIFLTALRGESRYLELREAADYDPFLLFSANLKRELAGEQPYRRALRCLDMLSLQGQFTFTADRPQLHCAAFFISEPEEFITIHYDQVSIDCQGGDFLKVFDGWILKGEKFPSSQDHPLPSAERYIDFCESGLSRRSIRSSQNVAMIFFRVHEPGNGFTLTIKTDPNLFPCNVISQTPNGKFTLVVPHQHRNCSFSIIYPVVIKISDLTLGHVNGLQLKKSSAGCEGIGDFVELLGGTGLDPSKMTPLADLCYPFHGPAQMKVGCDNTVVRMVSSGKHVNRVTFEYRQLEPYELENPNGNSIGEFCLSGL
# [21] = molecular target: T6, Corticotropin-releasing factor receptor 2/Corticotropin-releasing factor-binding protein; assay: activators of CRF receptor 2 with binding protein – uHTS hits, confirmation (AID 602473); type: functional; conditions: read-out: EC50_Mean
# [22] = tested on: Streptococcus sp. 'group A'; assay: growth inhibition of control SK(-) GAS strain, dose response, counter-screen for streptokinase expression inhibitor project, luminescence, kanamycin, BacTiterGlo, confirmation (AID 1900); type: functional, organism-based
# [23] = tested on: H9c2; assay: cells; type: functional, cell-based; conditions: Rattus norvegicus, H9c2, Myocardium;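 note: confirmatory concentration-response retest of ultra-high-throughput screening hits for modulation of myocardial damage; cell death induced by hydrogen peroxide oxidative stress; compound pretreatment for 60 min then peroxide exposure for 2 h; potency is for protecting the cells against peroxide damage rather than for killing them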
# [24] = molecular target: T7, Fructose-bisphosphate aldolase (Mycobacterium tuberculosis, UniProt P9WQA3); assay: Fluorescence-based biochemical high throughput dose response assay for inhibitors of the fructose-bisphosphate aldolase (FBA) of M. tuberculosis.; type: functional
# T7 sequence (P9WQA3 whole entry): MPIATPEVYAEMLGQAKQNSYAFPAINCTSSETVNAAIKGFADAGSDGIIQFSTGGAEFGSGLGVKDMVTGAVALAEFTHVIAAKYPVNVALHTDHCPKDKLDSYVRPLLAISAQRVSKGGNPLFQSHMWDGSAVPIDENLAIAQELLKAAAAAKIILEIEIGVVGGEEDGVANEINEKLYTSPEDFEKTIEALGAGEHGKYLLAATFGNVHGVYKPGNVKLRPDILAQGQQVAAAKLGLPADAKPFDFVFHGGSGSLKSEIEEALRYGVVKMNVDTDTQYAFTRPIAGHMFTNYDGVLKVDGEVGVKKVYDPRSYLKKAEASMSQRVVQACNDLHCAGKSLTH
# T2 sequence (P63165 whole entry): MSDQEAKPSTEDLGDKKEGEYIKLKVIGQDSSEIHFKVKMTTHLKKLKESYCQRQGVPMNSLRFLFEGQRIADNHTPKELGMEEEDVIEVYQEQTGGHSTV
# Sequence of 72 kDa type IV collagenase (P08253 whole entry): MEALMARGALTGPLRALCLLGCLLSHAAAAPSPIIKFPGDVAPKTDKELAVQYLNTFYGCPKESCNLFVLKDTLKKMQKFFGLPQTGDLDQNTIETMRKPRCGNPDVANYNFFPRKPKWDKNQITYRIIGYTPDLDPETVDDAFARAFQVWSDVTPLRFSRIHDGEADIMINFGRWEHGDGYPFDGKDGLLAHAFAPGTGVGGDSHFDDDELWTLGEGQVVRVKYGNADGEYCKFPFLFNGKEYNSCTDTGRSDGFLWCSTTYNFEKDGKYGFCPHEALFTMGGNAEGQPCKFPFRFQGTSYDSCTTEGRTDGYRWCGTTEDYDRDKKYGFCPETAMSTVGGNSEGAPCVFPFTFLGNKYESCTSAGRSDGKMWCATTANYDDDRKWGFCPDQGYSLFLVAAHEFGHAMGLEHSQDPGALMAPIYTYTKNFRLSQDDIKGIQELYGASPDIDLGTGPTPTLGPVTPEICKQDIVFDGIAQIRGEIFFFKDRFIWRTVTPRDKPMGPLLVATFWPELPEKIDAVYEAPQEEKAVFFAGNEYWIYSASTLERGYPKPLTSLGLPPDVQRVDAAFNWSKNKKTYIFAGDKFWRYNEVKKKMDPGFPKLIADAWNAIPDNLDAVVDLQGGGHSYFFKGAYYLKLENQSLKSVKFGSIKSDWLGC
# Sequence of DNA dC->dU-editing enzyme APOBEC-3G (Q9HC16 whole entry): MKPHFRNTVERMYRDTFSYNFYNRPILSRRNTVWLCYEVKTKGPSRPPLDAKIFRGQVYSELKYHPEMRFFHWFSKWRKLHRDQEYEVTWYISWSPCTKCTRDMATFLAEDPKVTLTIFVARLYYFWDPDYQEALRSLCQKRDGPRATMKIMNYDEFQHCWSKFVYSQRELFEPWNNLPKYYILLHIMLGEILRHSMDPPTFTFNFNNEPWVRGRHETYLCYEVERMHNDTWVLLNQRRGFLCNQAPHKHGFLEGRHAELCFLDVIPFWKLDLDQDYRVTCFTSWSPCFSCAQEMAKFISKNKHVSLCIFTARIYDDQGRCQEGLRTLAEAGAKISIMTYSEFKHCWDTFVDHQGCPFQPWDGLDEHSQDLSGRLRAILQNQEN
# Sequence of 26S proteasome non-ATPase regulatory subunit 14 (O00487 whole entry): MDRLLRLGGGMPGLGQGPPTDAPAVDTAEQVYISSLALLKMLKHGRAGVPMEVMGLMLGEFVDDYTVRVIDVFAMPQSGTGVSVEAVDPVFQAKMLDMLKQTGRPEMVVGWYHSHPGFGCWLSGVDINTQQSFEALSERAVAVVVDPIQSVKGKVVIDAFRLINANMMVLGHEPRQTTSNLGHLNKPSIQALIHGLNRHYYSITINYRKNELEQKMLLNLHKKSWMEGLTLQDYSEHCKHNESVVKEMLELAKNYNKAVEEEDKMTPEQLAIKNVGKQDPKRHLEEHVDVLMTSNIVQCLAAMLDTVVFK
# Sequence of DNA dC->dU-editing enzyme APOBEC-3A (P31941 whole entry): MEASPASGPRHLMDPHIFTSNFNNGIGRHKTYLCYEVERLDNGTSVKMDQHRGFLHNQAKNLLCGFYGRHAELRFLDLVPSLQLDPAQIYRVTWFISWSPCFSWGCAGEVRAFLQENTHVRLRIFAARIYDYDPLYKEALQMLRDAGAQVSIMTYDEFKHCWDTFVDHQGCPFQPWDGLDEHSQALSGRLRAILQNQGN
smiles,measurement,setting,value
COc1ccc(C2c3c(oc4ccc(Cl)cc4c3=O)C(=O)N2CCN2CCOCC2)cc1 (configuration not stated),AC50,[1],3.7 µM (active)
CC(=O)c1ccc(NC(=O)CN2CCN(c3ccccc3)CC2)cc1,AC50,[1],8.6 µM (active)
O=C(c1ccc(S(=O)(=O)Nc2ccccc2F)cc1)N1CCN(c2ccccc2O)CC1,AC50,[1],3.62 µM (active)
CCC(CO)Oc1cc(NC(=O)c2ccc(N)cc2)c2ncn(C(C)C)c2c1 (configuration not stated),IC50,[2],64.6 µM (active)
same,IC50,[3],> 66.6 µM (inactive)
same,IC50,[4],> 100 µM (inactive)
same,IC50,[5],19.6 µM (active)
same,IC50,[6],9.23 µM (active)
CCn1c(C)c(C(C)=O)c(NCc2ccccc2)nc1=S,AC50,[7],11 µM (active)
O=C(Nc1ccc(Cl)cc1Cl)c1cccc(N2C(=O)C=CC2=O)c1,IC50,[8],13.8 µM (active)
same,CC50,[9],> 40 µM (active)
same,IC50,[10],> 100 µM (inactive)
same,AC50,[11],0.295 µM (active)
CN(CC(=O)Nc1cccc(F)c1)C(=O)c1cn(-c2ccccc2)nc1-c1ccc(Cl)cc1,AC50,[12],2.93 µM (active)
same,AC50,[11],8.31 µM (active)
O=S(=O)(NCCc1ccccc1)c1ccc(F)cc1,IC50,[13],4.22 µM (active)
same,EC50,[14],1.37 µM (active)
same,EC50,[15],> 29.9 µM (inactive)
same,IC50,[16],> 29.9 µM (inactive)
CCc1ccc(N2CN(CCc3ccccc3)CN=C2S)cc1,IC50,[13],9.18 µM (active)
same,EC50,[14],2.26 µM (active)
same,EC50,[15],> 29.9 µM (inactive)
same,IC50,[16],> 29.9 µM (inactive)
Cc1ccccc1-c1cc2nc(-c3ccc([N+](=O)[O-])cc3)cc(O)n2n1,IC50,[17],3.21 µM (active)
same,EC50,[18],> 150 µM (not active)
same,EC50,[19],60.1 µM (active)
same,IC50,[20],4.74 µM (active)
same,EC50,[21],> 53 µM (inactive)
same,EC50,[22],9.23 µM (active)
CC1=CC(C)(C)N2C(=O)C3(C(C#N)=C(N)Oc4cc(O)ccc43)c3c(C)c(C)cc1c32 (configuration not stated),IC50,[17],16.5 µM (active)
same,IC50,[20],29.4 µM (active)
same,EC50,[21],> 53 µM (inactive)
CC1(C)CC(=O)C2=C(C1)N(CCN1CCOCC1)C1=C(C(=O)CC(C)(C)C1)C2c1ccc(Cl)cc1,IC50,[23],> 79 µM (inactive)
same,IC50,[24],2.33 µM (active)
Cc1nn(S(=O)(=O)c2cccs2)c(C)c1Sc1ccc([N+](=O)[O-])cc1,IC50,[17],12.8 µM (active)
same,IC50,[20],< 0.368 µM (active)
same,EC50,[21],> 53 µM (inactive)
CNC(=O)C[C@H]1CC[C@@H]2[C@H](COC[C@@H](O)CN2C(=O)Nc2ccc3c(c2)OCO3)O1,AC50,[1],10.4 µM (active)
CC1(C)Oc2cc3oc(C(=O)O)cc(=O)c3cc2-c2ccccc21,IC50,[24],> 0.37 µM (active)
O=C(Cc1nnc(O)nc1O)N/N=C/c1ccccc1,IC50,[13],> 29.9 µM (inactive)
same,EC50,[14],> 29.9 µM (inactive)
same,EC50,[15],> 29.9 µM (inactive)
same,IC50,[16],> 29.9 µM (inactive)
c1ccc2c(c1)CCCC2C1=NCCN1 (configuration not stated) [TETRAHYDROZOLINE HYDROCHLORIDE],IC50,[13],0.157 µM (active)
same,EC50,[14],0.154 µM (active)
same,EC50,[15],> 29.9 µM (inactive)
same,IC50,[16],> 29.9 µM (inactive)
